Measured values published in paper PMC3326528 (Journal of the American Chemical Society, 2007).
pKd: −log10 of the molar value.

How the values were obtained:
[1] = biological target: apo FDAS (Streptantibioticus cattleyicolor, UniProt Q70GK9); assay: ITC binding of ligands to apo FDAS; design: species or system Streptomyces cattleya; settings: for Stoichiometry (N) / Ka (app) / S / ΔH: 25 °C; for Stoichiometry (N): 20mM sodium phosphate buffer (pH 7.8), apo FDAS; for Ka (app) / S / ΔH: pH 7.8, apo FDAS
[2] = biological target: FDAS (native, wild type) (Streptantibioticus cattleyicolor, UniProt Q70GK9); assay: Isothermal titration calorimetry; type: binding
[3] = biological target: D16N mutation of FDAS (Streptantibioticus cattleyicolor, UniProt Q70GK9, D16N); assay: ITC binding of SAM to D16N mutant; design: species or system Streptomyces cattleya
[4] = biological target: T1, FDAS (Streptantibioticus cattleyicolor, UniProt Q70GK9); assay: Discontinuous assay of FDAS; type: biochemical, Streptomyces cattleya; settings: F^− 200mM
[5] = biological target: FDAS pre-incubated with 5′-FDA (Streptantibioticus cattleyicolor, UniProt Q70GK9); settings: 1mM L-methionine titrated into 0.08 mM FDA and 0.02 mM apo FDAS mixture
[6] = biological target: FDAS pre-incubated with adenosine (Streptantibioticus cattleyicolor, UniProt Q70GK9); settings: 1mM L-methionine titrated into 0.024 mM Adenosine and 0.02 mM apo FDAS mixture
[7] = system: FDAS; assay: Discontinuous assay of FDAS; type: biochemical, Streptomyces cattleya; settings: turnover at a fixed substrate concentration compared to the wild type
[8] = biological target: T1, FDAS; assay: Active site titration of FDAS; type: biochemical, Streptomyces cattleya
[9] = biological target: T1, FDAS; assay: Reactivity of SAH / homocysteine with FDAS; type: biochemical, Streptomyces cattleya

| Molecule | Stoichiometry (N) ([1]; ITC) | Ka (app) ([1]; ITC) | S ([1]; ITC) [kJ/mol] | ΔH ([1]; ITC) [kJ/mol] | pKd [2] | further results |
| --- | --- | --- | --- | --- | --- | --- |
| Nc1ncnc2c1ncn2[C@@H]1O[C@H](CO)C[C@H]1O [3′-deoxy-Ade] | 0.37 ± 0.02 | 4.5 ± 0.6 ×10^5 M^−1 | -0.113 | -66.9 ± 3.8 |  | reduction of affinity relative to adenosine ([1]; ITC): 3 fold |
| Nc1ncnc2c1ncn2[C@@H]1O[C@H](CF)[C@@H](O)[C@H]1O [FDA, 5′-fluoro-5′-deoxy adenosine] | 1.16 ± 0.01 | 45.5 ± 6.5 ×10^5 M^−1 | -0.0711 | -58.6 ± 0.42 |  |  |
| C[S+](CC[C@H](N)C(=O)[O-])C[C@H]1O[C@@H](n2cnc3c(N)ncnc32)[C@H](O)[C@@H]1O (stereo partly drawn) [SAM, S-adenosyl-L-methionine] | 0.56 ± 0.01 | 8.0 ± 0.5 ×10^5 M^−1 | -0.243 | -105 ± 1.7 | 5.90 | SAM binding by ITC [3]: does not bind with measurable affinity; SAM concentration above which FDAS displays substrate inhibition [4]: greater than 20 μM |
| F [fluoride] |  |  |  |  |  | binding to the protein by ITC ([1]; either as apo or SAH complex): too weak to measure |
| Nc1ncnc2c1ncn2[C@@H]1O[C@H](CF)[C@@H](O)[C@H]1O [FDA, 5′-fluoro-5′-deoxyadenosine (5′-FDA)] |  |  |  |  | 6.66 |  |
| Nc1ncnc2c1ncn2[C@@H]1O[C@H](CO)[C@@H](O)[C@H]1O [Ade, adenosine] | 0.67 ± 0.01 | 12.2 ± 1.2 ×10^5 M^−1 | -0.167 | -83.7 ± 1.7 | 6.09 |  |
| CSCC[C@H](N)C(=O)O [L-methionine] |  |  |  |  |  | S [5]: -0.151 kJ/mol; ΔH [5]: -71.1 ± 8.4 kJ/mol; S [6]: -0.092 kJ/mol; Stoichiometry (N) [6]: 0.48 ± 0.11; ΔH [6]: -54.4 ± 13 kJ/mol |
| 5′-fluoro-5′-deoxy adenosine synthetase [FDAS] |  |  |  |  |  | % activity [7]: 100%; burst size (active sites) ([8]; 50 μM SAM mixed with FDAS (2 μM), reaction initiated with 100 mM F^−): 0.1 µM; burst size (active sites) ([8]; 100 mM F^− pre-mixed with FDAS (2 μM), reaction initiated by 50 μM SAM): 0.6 µM |
| Nc1ncnc2c1ncn2[C@@H]1O[C@H](CSCC[C@H](N)C(=O)O)[C@@H](O)[C@H]1O [SAH, S-adenosyl homocysteine] | 0.72 ± 0.01 | 302 ± 74 ×10^5 M^−1 | -0.41 | -167 ± 2.1 | 7.48 | binding affinity relative to SAM (times more tightly bound) ([1]; ITC): 40 times; effect on the reaction of SAM with F^− [9]: inhibits; substrate of FDAS in the forward direction [9]: not a substrate; 5′-ClDA production by the enzyme ([9]; incubation of Cl^− and SAH): does not produce 5′-ClDA |
| NC(CCS)C(=O)O (stereo not shown) [homocysteine] |  |  |  |  |  | SAH production by the enzyme (HPLC) ([9]; 5-ClDA and homocysteine): nor is any detected; SAH production by the enzyme (HPLC) ([9]; homocysteine and 5′-FDA, reverse reaction): no detectable production of SAH |
| Nc1ncnc2c1ncn2[C@@H]1O[C@H](CO)C[C@H]1O [3′-deoxy-Ade, 3′-deoxyadenosine] |  |  |  |  | 5.65 |  |
